Experimental data taken from patent US20040137389A1, “Heat-developable light-sensitive material” (priority 2002, published 2004).

Assay: Difference between light absorption intensity before and after heat development (absorbance at 415 nm), Examples 1 and 2
Settings: A/B×100 (after/before heat development, silver iodide-free sample as base), development 24 seconds, Example 1
Experimental: (§1) Each sample was thermally developed with Fuji Medical Dry Laser Imager FM-DPL Model in which the temperatures of four panel heaters were set at 112° C., 118° C., 120° C. and 120° C., respectively and which the overall development time was set at 24 seconds.
Using a spectral photometer U-4100 (manufactured by Hitachi) equipped with an integrating sphere, the spectral absorbance of each sample was measured. […] The change rate of the absorbance at 415 nm of each of samples 11 to 20 before heat development and that after heat development was measured. Apart from the above samples, silver iodide-free sample was prepared, and the absorbance thereof at 415 nm was used as a base standard. The absorbance reduction rate of each sample was computed according to the formula mentioned below.
Absorbance reduction rate (%)=A/B×100
(§2) A=(absorbance of a sample after heat development)−(absorbance of a silver iodide-free sample after heat development)
(§3) B=(absorbance of the sample before heat development)−(absorbance of a silver iodide-free sample before heat development)

SMILES | Absorbance Change Rate (%)
CC(C)c1ccc2cnncc2c1 [6-isopropylphthalazine] | may lower the absorption intensity

Assay: Measurement of acid dissociation constant pKa by potentiometric titration
Assay type: physicochemical
Settings: compound of formula (1) or (2); tetrahydrofuran/water (3/2), 25° C.; Table 2
Experimental: Using an automatic potentiometric titration meter, Kyoto Electronic Industry's AT-420, the acid dissociation constant (pKa) of the conjugate acid of the compound of formula (1) in a mixed solution of tetrahydrofuran and water (3/2) was measured at 25° C.
Using an automatic potentiometric titration meter, Kyoto Electronic Industry's AT-420, the acid dissociation constant (pKa) of the conjugate acid of the silver iodide complex-forming agent in a mixed solution of tetrahydrofuran and water (3/2) was measured at 25° C.

SMILES | pKa of Conjugate Acid
O=C(Nc1ccncc1)c1ccccc1 [Sample F-325] | 4.2
Cc1nnc(C)c(C)c1C [Sample F-404] | 5.4
c1ccc(-c2ccnnc2)cc1 [Sample F-405] | 3.6

Same assay, conditions: conjugate acid of the silver iodide complex-forming agent; tetrahydrofuran/water (3/2), 25° C.; Table 5

SMILES | pKa
O=C(Nc1ccncc1)c1ccccc1 [Sample F-325] | 4.2
Cc1nnc(C)c(C)c1C [Sample F-404] | 5.4
c1ccc(-c2ccnnc2)cc1 [Sample F-405] | 3.6

Same assay, conditions: conjugate acid of the silver iodide complex-forming agent; tetrahydrofuran/water (3/2), 25° C.; Table 6

SMILES | pKa
O=C(Nc1ccncc1)c1ccccc1 [Sample F-325] | 4.2

Same assay, conditions: conjugate acid of the silver iodide complex-forming agent; tetrahydrofuran/water (3/2), 25° C.; Table 8

SMILES | pKa
O=C(Nc1ccncc1)c1ccccc1 [Sample F-325] | 4.2
Cc1nnc(C)c(C)c1C [Sample F-404] | 5.4
c1ccc(-c2ccnnc2)cc1 [Sample F-405] | 3.6

Same assay, conditions: conjugate acid; tetrahydrofuran/water (3/2), 25° C.; Table 1

SMILES | Compound of Formula (1) or (2) pKa
O=C(Nc1ccncc1)c1ccccc1 [Sample F-325] | 4.2

Same assay, conditions: conjugate acid; tetrahydrofuran/water (3/2), 25° C.; Table 3

SMILES | Silver Iodide Complex-forming Agent pKa
O=C(Nc1ccncc1)c1ccccc1 [Sample F-325] | 4.2

Same assay, conditions: tetrahydrofuran/water (3/2) mixed solution, compound of formula (1) or (2), 25° C., Table 2, read-out: pKa of Conjugate Acid

SMILES | pKa
c1cc2cnncc2s1 [Sample F-421] | 4.2

Assay: Retention of absorbance at 415 nm after heat development, Examples 3 and 4
Settings: A/B×100 (after/before heat development), development 24 seconds, grain size 0.12 μm, Example 3
Experimental: as §1
Using a spectral photometer U-4100 (manufactured by Hitachi) equipped with an integrating sphere, the spectral absorbance of each sample was measured. The change rate of the absorbance at 415 nm of each sample before heat development and that after heat development was measured. Apart from the above samples, silver iodide-free sample was prepared, and the absorbance thereof at 415 nm was used as a base standard. The retention of absorbance of each sample was computed according to the formula mentioned below. The smaller the retention, the larger the reduction in absorption, which is preferable.
Retention of Absorbance (%)=A/B×100
as §2, §3

SMILES | Silver Iodide Absorption Retention (%)
CC(C)c1ccc2cnncc2c1 [6-isopropylphthalazine] | more effective than phthalazine
c1ccc2cnncc2c1 [phthalazine, Phthalazine] | effective for reducing the absorption intensity

Assay: not given
Settings: Hammett's substituent constants of Y11 to Y14; constants from Chemical Review, 1991, Vol. 91; cited from earlier work

SMILES | Total Sum of σ p
Cc1cccc2c(=O)[nH]ncc12 [Sample I-1] | −0.17
Cc1ccc2c(=O)[nH]ncc2c1 [Sample I-2] | −0.17
Cc1ccc2cn[nH]c(=O)c2c1 [Sample I-3] | −0.17
Cc1cccc2cn[nH]c(=O)c12 [Sample I-4] | −0.17
CCc1cccc2c(=O)[nH]ncc12 [Sample I-5] | −0.15
CCc1ccc2c(=O)[nH]ncc2c1 [Sample I-6] | −0.15
CCc1ccc2cn[nH]c(=O)c2c1 [Sample I-7] | −0.15
CCc1cccc2cn[nH]c(=O)c12 [Sample I-8] | −0.15
CCCc1ccc2c(=O)[nH]ncc2c1 [Sample I-9] | −0.13
CCCc1cccc2c(=O)[nH]ncc12 [Sample I-10] | −0.13
CCCc1ccc2cn[nH]c(=O)c2c1 [Sample I-11] | −0.13
CCCc1cccc2cn[nH]c(=O)c12 [Sample I-12] | −0.13
CC(C)c1ccc2c(=O)[nH]ncc2c1 [Sample I-13] | −0.15
CCCCc1ccc2c(=O)[nH]ncc2c1 [Sample I-14] | −0.16
O=c1[nH]ncc2cc(-c3ccccc3)ccc12 [Sample I-15] | −0.01
CC(C)Cc1ccc2c(=O)[nH]ncc2c1 [Sample I-16] | −0.12
CC(C)(C)c1ccc2c(=O)[nH]ncc2c1 [Sample I-17] | −0.20
Cc1cc2cn[nH]c(=O)c2cc1C [Sample I-18] | −0.34
Cc1ccc2c(=O)[nH]ncc2c1C [Sample I-19] | −0.34
Cc1cc2c(=O)[nH]ncc2c(C)c1C [Sample I-20] | −0.51
CCc1cc2cn[nH]c(=O)c2cc1C [Sample I-21] | −0.32
CC(C)c1ccc2cn[nH]c(=O)c2c1 [Sample I-22] | −0.15
CCCCc1ccc2cn[nH]c(=O)c2c1 [Sample I-23] | −0.16
CCC(C)c1ccc2cn[nH]c(=O)c2c1 (stereo not shown) [Sample I-24] | −0.12
CC(C)Cc1ccc2cn[nH]c(=O)c2c1 [Sample I-25] | −0.12
COc1cccc2c(=O)[nH]ncc12 [Sample I-26] | −0.27

SMILES | Total Sum of σ p
COc1ccc2c(=O)[nH]ncc2c1 [Sample I-27] | −0.27
COc1ccc2cn[nH]c(=O)c2c1 [Sample I-28] | −0.27
COc1cccc2cn[nH]c(=O)c12 [Sample I-29] | −0.27
CCOc1cccc2c(=O)[nH]ncc12 [Sample I-30] | −0.24
CCOc1ccc2c(=O)[nH]ncc2c1 [Sample I-31] | −0.24
CCOc1ccc2cn[nH]c(=O)c2c1 [Sample I-32] | −0.24
CCOc1cccc2cn[nH]c(=O)c12 [Sample I-33] | −0.24
CCCOc1cccc2c(=O)[nH]ncc12 [Sample I-34] | −0.32
CCCOc1ccc2c(=O)[nH]ncc2c1 [Sample I-35] | −0.32
CCCOc1ccc2cn[nH]c(=O)c2c1 [Sample I-36] | −0.32
CCCOc1cccc2cn[nH]c(=O)c12 [Sample I-37] | −0.32
CC(C)Oc1ccc2c(=O)[nH]ncc2c1 [Sample I-38] | −0.33
CCCCOc1ccc2c(=O)[nH]ncc2c1 [Sample I-39] | −0.34
COc1cc2cn[nH]c(=O)c2cc1OC [Sample I-40] | −0.54
COc1ccc2c(=O)[nH]ncc2c1OC [Sample I-41] | −0.54
COc1cc2c(=O)[nH]ncc2c(OC)c1OC [Sample I-42] | −0.81
O=c1[nH]ncc2cc(Oc3ccccc3)ccc12 [Sample I-47] | −0.03
O=c1[nH]ncc2ccc(Oc3ccccc3)cc12 [Sample I-48] | −0.03
CCN(CC)c1ccc2c(=O)[nH]ncc2c1 [Sample I-59] | −0.72
Nc1ccc2c(=O)[nH]ncc2c1 [Sample I-60] | −0.66
CC(=O)Nc1ccc2c(=O)[nH]ncc2c1 [Sample I-61] | 0.00
O=C(Nc1ccc2c(=O)[nH]ncc2c1)c1ccccc1 [Sample I-62] | −0.19
O=c1[nH]ncc2cc(NS(=O)(=O)c3ccccc3)ccc12 [Sample I-65] | 0.01
CC(=O)Oc1ccc2cn[nH]c(=O)c2c1 [Sample I-69] | 0.31
CN(C)c1ccc2cn[nH]c(=O)c2c1 [Sample I-74] | −0.83
